PubChem BioAssay (NCI)
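Each compound was tested at five concentrations against cells in 96-well plates for 48 hours. At the GI50, growth is halved. TGI is the concentration that stops growth completely.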 Active and inactive are the calls of the source. Rule as the data show it: active = GI50 below about 0.43 µM; inactive = the rest.

Legend:
Experiment in all cases: NCI-60 cell line screen, 48 h
[1] = system: UO-31 renal
[2] = system: ACHN renal
[3] = system: RPMI-8226 leukemia
[4] = system: LOX IMVI melanoma
[5] = system: M14 melanoma
[6] = system: EKVX NSCLC
[7] = system: SNB-78 CNS
[8] = system: SK-MEL-2 melanoma
[9] = system: SNB-19 CNS
[10] = system: M19-MEL melanoma
[11] = system: SF-539 CNS
[12] = system: KM12 colon
[13] = system: MALME-3M melanoma
[14] = system: LXFL 529 NSCLC
[15] = system: SK-MEL-28 melanoma
[16] = system: UACC-62 melanoma
[17] = system: K-562 leukemia
[18] = system: OVCAR-8 ovarian
[19] = system: HCC-2998 colon
[20] = system: U251 CNS
[21] = system: MOLT-4 leukemia
[22] = system: OVCAR-3 ovarian
[23] = system: HCT-116 colon
[24] = system: NCI-H226 lung
[25] = system: UACC-257 melanoma
[26] = system: 786-0 renal
[27] = system: SF-295 CNS
[28] = system: A549 NSCLC
[29] = system: HOP-62 NSCLC
[30] = system: IGROV1 ovarian
[31] = system: NCI-H23 lung
[32] = system: COLO 205 colon
[33] = system: SNB-75 CNS
[34] = system: SN12C renal
[35] = system: OVCAR-5 ovarian
[36] = system: HOP-18 NSCLC
[37] = system: TK-10 renal
[38] = system: KM20L2 colon
[39] = system: RXF 393 renal
[40] = system: SK-MEL-5 melanoma
[41] = system: SK-OV-3 ovarian
[42] = system: HL-60(TB) leukemia
[43] = system: NCI-H460 lung
[44] = system: MCF7 breast
[45] = system: SW-620 colon
[46] = system: PC-3 prostate
[47] = system: T-47D breast
[48] = system: CCRF-CEM leukemia
[49] = system: MDA-MB-231 breast
[50] = system: MDA-MB-435
[51] = system: HOP-92 NSCLC
[52] = system: DLD-1 colon
[53] = system: NCI/ADR-RES ovarian
[54] = system: CAKI-1 renal
[55] = system: SF-268 CNS
[56] = system: HT29 colon
[57] = system: DU-145 prostate
[58] = system: HS 578T breast

CC[N-]c1nnnn1CC.[Au+].c1ccc([PH+](c2ccccc2)c2ccccc2)cc1
GI50 [1]: 1.66 µM
TGI [1]: 3.14 µM
GI50 [2]: 1.62 µM
TGI [2]: 3.02 µM
GI50 [3]: 0.568 µM
TGI [3]: 4.48 µM
GI50 [4]: 1.45 µM
TGI [4]: 2.93 µM
GI50 [5]: 1.29 µM
TGI [5]: 2.79 µM
GI50 [6]: 1.7 µM
TGI [6]: 4.04 µM
GI50 [7]: 2.5 µM
TGI [7]: > 100 µM
GI50 [8]: 1.14 µM
TGI [8]: 2.39 µM
GI50 [9]: 1.44 µM
TGI [9]: 2.76 µM
TGI [10]: 4.24 µM
GI50 [11]: 2.1 µM
TGI [11]: 5.79 µM
GI50 [12]: 2.93 µM
TGI [12]: 11.6 µM
GI50 [13]: 1.24 µM
TGI [13]: 2.55 µM
GI50 [14]: 0.723 µM
TGI [14]: 2.04 µM
GI50 [15]: 0.677 µM
TGI [15]: 2.16 µM
GI50 [16]: 1.2 µM
TGI [16]: 3.18 µM
GI50 [17]: 0.342 µM
TGI [17]: 1.91 µM
GI50 [18]: 1.57 µM
TGI [18]: 3.07 µM
GI50 [19]: 1.68 µM
TGI [19]: 3.15 µM
GI50 [20]: 1.96 µM
TGI [20]: 6.48 µM
GI50 [21]: 0.716 µM
TGI [21]: 3.74 µM
GI50 [22]: 1.76 µM
TGI [22]: 3.15 µM
GI50 [23]: 1.55 µM
TGI [23]: 2.9 µM
GI50 [24]: 1.44 µM
TGI [24]: 3.2 µM
GI50 [25]: 1.27 µM
TGI [25]: 2.72 µM
GI50 [26]: 1.37 µM
TGI [26]: 2.67 µM
GI50 [27]: 3.09 µM
TGI [27]: 10 µM
GI50 [28]: 4.93 µM
TGI [28]: > 53.5 µM
GI50 [29]: 2.07 µM
TGI [29]: 3.72 µM
GI50 [30]: 2.26 µM
TGI [30]: 5.96 µM
GI50 [31]: 1.39 µM
TGI [31]: 3.01 µM
GI50 [32]: 2.19 µM
TGI [32]: 5.4 µM
GI50 [33]: 1.35 µM
TGI [33]: 3.46 µM
GI50 [34]: 1.65 µM
TGI [34]: 3.26 µM
GI50 [35]: 4.5 µM
TGI [35]: 9.16 µM
GI50 [36]: 1.82 µM
TGI [36]: 3.23 µM
GI50 [37]: 1.66 µM
TGI [37]: 3.07 µM
GI50 [38]: 2 µM
TGI [38]: 12.9 µM
GI50 [39]: 0.242 µM
TGI [39]: 0.801 µM
GI50 [40]: 0.811 µM
TGI [40]: 2.22 µM
GI50 [41]: 4.95 µM
TGI [41]: 9.98 µM
GI50 [42]: 0.187 µM
TGI [42]: 0.68 µM
GI50 [43]: 3.71 µM
TGI [43]: > 20.7 µM

OCCNCN(CNCCO)c1nc(N(CNCCO)CNCCO)nc(N(CNCCO)CNCCO)n1
TGI [1]: 0.25 µM
outcome [2]: inactive
outcome [44]: inactive
outcome [45]: inactive
outcome [6]: inactive
TGI [7]: 0.203 µM
outcome [46]: inactive
outcome [47]: inactive
outcome [9]: inactive
outcome [11]: inactive
TGI [12]: 0.55 µM
TGI [48]: 0.0602 µM
outcome [49]: inactive
outcome [50]: inactive
outcome [51]: inactive
TGI [52]: 0.405 µM
outcome [53]: inactive
outcome [15]: inactive
TGI [17]: 0.15 µM
outcome [18]: inactive
outcome [54]: inactive
outcome [20]: inactive
outcome [55]: inactive
TGI [21]: 0.205 µM
outcome [21]: inactive
outcome [56]: inactive
outcome [57]: inactive
outcome [22]: inactive
outcome [24]: inactive
outcome [25]: inactive
TGI [27]: 0.147 µM
outcome [27]: inactive
TGI [28]: 0.257 µM
outcome [28]: inactive
outcome [30]: inactive
outcome [31]: inactive
TGI [32]: 0.0877 µM
outcome [34]: inactive
outcome [35]: inactive
outcome [58]: inactive
TGI [38]: 0.322 µM
TGI [43]: 0.354 µM
outcome [43]: inactive
